From ChEMBL document CHEMBL1201862, “PubChem BioAssay data set” (2004)
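Values below derive from 48-hour exposures of cells grown in 96-well plates, with endpoints linearly interpolated between the two concentrations bracketing the appropriate inhibition level. GI50 is the concentration that inhibits growth by half.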 Calls of active or inactive are those of the source. Cut-off read from the data, not from the text of the source: active = GI50 up to about 1.1 µM and inactive = higher.

Tests used:
Test in all cases: inhibition of tumour cell growth, NCI panel, 48 h
786-0 = system: 786-0
OVCAR-5 = system: OVCAR-5
HT-29 = system: HT-29
OVCAR-4 = system: OVCAR-4
HCT-116 = system: HCT-116
HCT-15 = system: HCT-15
EKVX = system: EKVX
CAKI-1 = system: CAKI-1
NCI-H226 = system: NCI-H226
M14 = system: M14
TK-10 = system: TK-10
SK-OV-3 = system: SK-OV-3
SNB-75 = system: SNB-75
HOP-92 = system: HOP-92
NCI-H460 = system: NCI-H460

Measured: GI50

CCOc1ccc(NCC2CC/C(=C\c3ccccc3OC)C2=O)cc1 (centres undefined)
inactive: 786-0 3.01 µM | OVCAR-5 18.5 µM | HT-29 3.3 µM | OVCAR-4 6.38 µM | HCT-116 4.33 µM | EKVX 17.4 µM | CAKI-1 12.5 µM | NCI-H226 18.6 µM | M14 3.64 µM | TK-10 13.8 µM | SK-OV-3 17 µM | SNB-75 14.6 µM | HOP-92 19.5 µM
3.09 µM: HCT-15

[O-][S+]1c2ccccc2N=C(c2cccc3ccccc23)CC1c1cccc2ccccc12 (centres undefined)
inactive: 786-0 24.5 µM | OVCAR-5 31.6 µM | HT-29 25.7 µM | OVCAR-4 12.8 µM | NCI-H460 15 µM | HCT-116 17.3 µM | EKVX 21.4 µM | CAKI-1 24.8 µM | NCI-H226 21.1 µM | M14 14.5 µM | TK-10 31.2 µM | SK-OV-3 32.9 µM | SNB-75 23.1 µM
15.1 µM: HCT-15

COc1ccc(/N=N/c2c(N)nn(C)c2N)cc1
inactive: 786-0 > 100 µM | OVCAR-5 > 100 µM | HT-29 > 100 µM | OVCAR-4 > 100 µM | NCI-H460 > 100 µM | HCT-116 > 100 µM | EKVX > 100 µM | CAKI-1 > 100 µM | NCI-H226 > 100 µM | M14 > 100 µM | TK-10 > 100 µM | SK-OV-3 > 100 µM | SNB-75 51.6 µM | HOP-92 > 100 µM
> 100 µM: HCT-15

COc1ccc2cc1Oc1ccc(cc1)CC1c3cc4c(cc3CCN1C)Oc1c(OC)cc3c(c1O4)C(C2)N(C)CC3 (centres undefined)
inactive: 786-0 7.66 µM | OVCAR-5 13.6 µM | HT-29 1.81 µM | OVCAR-4 1.47 µM | NCI-H460 1.76 µM | HCT-116 1.7 µM | EKVX 9.79 µM | NCI-H226 1.72 µM | M14 1.64 µM | TK-10 15.6 µM | SNB-75 2.56 µM
2.42 µM: HCT-15

C/C=C/C=C/[C@H]1Cc2cc(O)cc(O)c2O1
84.9 µM: HCT-15
inactive: 786-0 > 100 µM | OVCAR-5 > 100 µM | HT-29 72.4 µM | OVCAR-4 35 µM | NCI-H460 44.1 µM | HCT-116 81.3 µM | EKVX 55.5 µM | CAKI-1 58.9 µM | M14 37.3 µM | TK-10 > 100 µM | SK-OV-3 > 100 µM | SNB-75 > 100 µM | HOP-92 > 100 µM

CS(=O)(=O)c1c(N)c2nc(Cl)cn2c2nc3ccccc3nc12
inactive: 786-0 62.4 µM | OVCAR-5 > 100 µM | HT-29 > 100 µM | OVCAR-4 > 100 µM | NCI-H460 > 100 µM | HCT-116 > 100 µM | EKVX > 100 µM | CAKI-1 > 100 µM | NCI-H226 > 100 µM | M14 > 100 µM | SK-OV-3 > 100 µM | SNB-75 81.3 µM
> 100 µM: HCT-15

O=C(C#Cc1cnc(O)nc1O)c1ccccc1
inactive: 786-0 12.2 µM | OVCAR-5 18.9 µM | HT-29 21.8 µM | OVCAR-4 14.1 µM | NCI-H460 14.1 µM | HCT-116 7 µM | EKVX 12 µM | CAKI-1 18.2 µM | NCI-H226 24.8 µM | M14 5.2 µM | TK-10 13.8 µM | SK-OV-3 27.3 µM | SNB-75 18.2 µM | HOP-92 13.2 µM
12.3 µM: HCT-15

CC(=O)OCCOCNC(=S)N/N=C(\C)c1ccco1
> 100 µM: HCT-15
inactive: 786-0 > 100 µM | OVCAR-5 > 100 µM | HT-29 > 100 µM | OVCAR-4 > 100 µM | NCI-H460 > 100 µM | HCT-116 > 100 µM | EKVX > 100 µM | NCI-H226 64.6 µM | M14 > 100 µM | TK-10 > 100 µM | SK-OV-3 > 100 µM | SNB-75 61 µM

O=C1[C@H]2ON(c3ccccc3)C(c3ccc(Cl)cc3)[C@H]2C(=O)N1c1ccc(Cc2ccc(N3C(=O)[C@@H]4ON(c5ccccc5)C(c5ccc(Cl)cc5)[C@@H]4C3=O)cc2)cc1 (some centres undefined)
> 100 µM: HCT-15
inactive: 786-0 > 100 µM | OVCAR-5 > 100 µM | HT-29 > 100 µM | OVCAR-4 > 100 µM | NCI-H460 > 100 µM | HCT-116 > 100 µM | EKVX > 100 µM | CAKI-1 > 100 µM | NCI-H226 > 100 µM | M14 18.7 µM | TK-10 > 100 µM | SK-OV-3 > 100 µM | SNB-75 > 100 µM

C=CCC(OCCOCC)c1cc(OCCOCC)ccc1OC (centres undefined)
inactive: 786-0 > 100 µM | OVCAR-5 > 100 µM | HT-29 > 100 µM | OVCAR-4 > 100 µM | NCI-H460 > 100 µM | EKVX > 100 µM | CAKI-1 > 100 µM | NCI-H226 > 100 µM | M14 > 100 µM | TK-10 > 100 µM | SK-OV-3 > 100 µM | SNB-75 > 100 µM | HOP-92 > 100 µM
> 100 µM: HCT-15

C1CN2CCO[SiH](O1)OCC2
inactive: 786-0 > 100 µM | HT-29 > 100 µM | NCI-H460 > 100 µM | HCT-116 > 100 µM | EKVX > 100 µM | CAKI-1 > 100 µM | NCI-H226 > 100 µM | TK-10 > 100 µM | SK-OV-3 > 100 µM | SNB-75 > 100 µM

O=C(O)c1ccccc1[Se][Se]c1ccccc1C(=O)O
55.1 µM: HCT-15
inactive: 786-0 75.2 µM | HT-29 35.1 µM | NCI-H460 30.8 µM | HCT-116 37.4 µM | CAKI-1 61.8 µM | NCI-H226 1.9 µM | M14 72.9 µM | TK-10 > 100 µM | SK-OV-3 85.5 µM | SNB-75 29.5 µM | HOP-92 39 µM

N#Cc1c(-c2ccco2)cc(-c2ccc(NCc3nc4ccccc4[nH]3)cc2)nc1N
23.6 µM: HCT-15
inactive: 786-0 28.6 µM | OVCAR-5 32.3 µM | HT-29 32.6 µM | OVCAR-4 22.8 µM | NCI-H460 18.1 µM | HCT-116 18.9 µM | CAKI-1 33.8 µM | M14 19.5 µM | TK-10 26.4 µM | SK-OV-3 50.5 µM | SNB-75 26.4 µM | HOP-92 21.4 µM

COC(=O)c1nc(C(=O)OC)c2c([nH]c3ccccc32)c1C(=O)OC
inactive: 786-0 > 100 µM | OVCAR-5 > 100 µM | HT-29 > 100 µM | OVCAR-4 > 10 µM | NCI-H460 46.1 µM | HCT-116 > 100 µM | CAKI-1 > 10 µM | NCI-H226 37.7 µM | M14 > 100 µM | TK-10 > 100 µM | SNB-75 41.5 µM | HOP-92 > 100 µM
53.5 µM: HCT-15

COC(=O)/C(=N\Nc1nc(S)nn1N)C(C#N)c1ccccc1 (centres undefined)
inactive: 786-0 > 100 µM | OVCAR-5 > 100 µM | HT-29 > 100 µM | OVCAR-4 > 100 µM | NCI-H460 > 100 µM | HCT-116 > 100 µM | EKVX > 100 µM | NCI-H226 > 100 µM | M14 > 100 µM | TK-10 > 100 µM | SK-OV-3 > 100 µM | SNB-75 > 100 µM
> 100 µM: HCT-15

O=C1C2=C(c3ccccc31)C(c1ccc(Cl)cc1)N1C(=O)CCSC1=N2 (centres undefined)
inactive: 786-0 > 100 µM | OVCAR-5 > 100 µM | HT-29 > 100 µM | OVCAR-4 36.1 µM | HCT-116 69.2 µM | EKVX 68.2 µM | CAKI-1 > 100 µM | NCI-H226 51.8 µM | M14 > 100 µM | TK-10 > 100 µM | SK-OV-3 > 100 µM | SNB-75 43.2 µM | HOP-92 31.4 µM
67.8 µM: HCT-15

COC(=O)[C@@]1(C)C(=O)CC[C@@H]1C=O
inactive: 786-0 > 100 µM | OVCAR-5 > 100 µM | HT-29 > 100 µM | OVCAR-4 > 100 µM | NCI-H460 > 100 µM | HCT-116 > 100 µM | EKVX > 100 µM | CAKI-1 > 100 µM | NCI-H226 > 100 µM | M14 > 100 µM | TK-10 > 100 µM | SK-OV-3 > 100 µM
> 100 µM: HCT-15

CC(=O)Nc1ccc(S(=O)(=O)Nc2cnc3ccccc3n2)cc1
> 100 µM: HCT-15
inactive: 786-0 > 100 µM | OVCAR-5 > 100 µM | HT-29 > 100 µM | OVCAR-4 > 100 µM | NCI-H460 > 100 µM | EKVX > 100 µM | CAKI-1 > 100 µM | NCI-H226 > 100 µM | M14 > 100 µM | TK-10 > 100 µM | SK-OV-3 > 100 µM | SNB-75 63.5 µM | HOP-92 > 100 µM

O=c1[nH]c(=O)n(C2CC(O)C(CO)O2)cc1C#Cc1cc(F)cc(F)c1 (centres undefined)
inactive: 786-0 > 100 µM | OVCAR-5 > 100 µM | HT-29 > 100 µM | OVCAR-4 > 100 µM | NCI-H460 > 100 µM | EKVX > 100 µM | CAKI-1 > 100 µM | NCI-H226 > 100 µM | M14 > 100 µM | SK-OV-3 > 100 µM | SNB-75 48.9 µM
> 100 µM: HCT-15

COc1ccc2[nH]c3c(c2c1)[C@H](C)C[C@@H]1C(=O)N(c2ccccc2)C(=O)[C@H]31
inactive: 786-0 22.8 µM | OVCAR-5 91.8 µM | OVCAR-4 20.7 µM | NCI-H460 26.2 µM | HCT-116 20.3 µM | EKVX 23.9 µM | CAKI-1 33 µM | M14 35.6 µM | TK-10 31.3 µM | SK-OV-3 20.5 µM | SNB-75 21.4 µM | HOP-92 14.9 µM
35.2 µM: HCT-15

CC(C)CS(=O)(=O)/C(=C(\c1ccc(Br)cc1)S(=O)(=O)CC(C)C)c1ccc(Br)cc1
inactive: 786-0 > 100 µM | OVCAR-5 > 100 µM | HT-29 > 100 µM | OVCAR-4 > 100 µM | NCI-H460 > 100 µM | HCT-116 > 100 µM | EKVX > 100 µM | CAKI-1 > 100 µM | NCI-H226 > 100 µM | M14 > 100 µM | TK-10 > 100 µM | SNB-75 38.3 µM | HOP-92 > 100 µM
> 100 µM: HCT-15
